From ChEMBL document CHEMBL5291721, “A preclinical secondary pharmacology resource illuminates target-adverse drug reaction associations of marketed drugs” (Nat Commun, 2023)

What was measured:
[1] = target: T1, Alpha-1A adrenergic receptor (Homo sapiens, UniProt P35348); format: functional, cell-based
T1 sequence (P35348 whole entry): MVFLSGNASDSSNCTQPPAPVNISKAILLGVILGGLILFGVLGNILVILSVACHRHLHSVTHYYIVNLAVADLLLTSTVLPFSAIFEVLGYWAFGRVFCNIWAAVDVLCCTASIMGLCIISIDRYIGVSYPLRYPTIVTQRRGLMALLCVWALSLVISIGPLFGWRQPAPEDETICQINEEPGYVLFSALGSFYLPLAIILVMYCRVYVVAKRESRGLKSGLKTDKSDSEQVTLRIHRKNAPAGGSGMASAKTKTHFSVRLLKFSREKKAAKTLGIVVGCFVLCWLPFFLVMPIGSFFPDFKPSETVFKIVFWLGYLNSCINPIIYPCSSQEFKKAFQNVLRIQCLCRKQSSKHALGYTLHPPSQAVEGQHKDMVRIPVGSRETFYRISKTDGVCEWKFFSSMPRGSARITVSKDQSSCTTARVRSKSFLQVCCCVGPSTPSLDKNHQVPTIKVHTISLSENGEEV

[2] = target: T2, Alpha-2A adrenergic receptor (Homo sapiens, UniProt P08913); format: functional, cell-based
T2 sequence (P08913 whole entry): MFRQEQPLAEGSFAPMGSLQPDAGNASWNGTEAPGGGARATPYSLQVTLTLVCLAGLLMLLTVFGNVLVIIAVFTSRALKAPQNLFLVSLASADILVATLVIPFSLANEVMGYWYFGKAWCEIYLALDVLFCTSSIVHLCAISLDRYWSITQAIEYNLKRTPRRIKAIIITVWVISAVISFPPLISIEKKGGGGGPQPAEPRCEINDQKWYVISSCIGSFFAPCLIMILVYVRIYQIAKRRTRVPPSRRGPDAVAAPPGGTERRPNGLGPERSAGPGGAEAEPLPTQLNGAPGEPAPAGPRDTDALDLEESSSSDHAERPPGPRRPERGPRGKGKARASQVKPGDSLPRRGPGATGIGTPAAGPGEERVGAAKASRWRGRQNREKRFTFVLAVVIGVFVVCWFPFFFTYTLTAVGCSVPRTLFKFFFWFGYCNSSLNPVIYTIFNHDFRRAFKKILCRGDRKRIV

[3] = target: Beta-1 adrenergic receptor (Homo sapiens, UniProt P08588); format: functional
D(1A) dopamine receptor = D(1A) dopamine receptor (Homo sapiens, UniProt P21728); format: functional, cell-based
[4] = target: Gamma-aminobutyric acid receptor subunit alpha-1 (Rattus norvegicus, UniProt P62813); format: functional
[5] = target: Glutamate receptor ionotropic, NMDA 1 (Rattus norvegicus, UniProt P35439)
[6] = target: T3, 5-hydroxytryptamine receptor 2C (Homo sapiens, UniProt P28335)
T3 sequence (P28335 whole entry): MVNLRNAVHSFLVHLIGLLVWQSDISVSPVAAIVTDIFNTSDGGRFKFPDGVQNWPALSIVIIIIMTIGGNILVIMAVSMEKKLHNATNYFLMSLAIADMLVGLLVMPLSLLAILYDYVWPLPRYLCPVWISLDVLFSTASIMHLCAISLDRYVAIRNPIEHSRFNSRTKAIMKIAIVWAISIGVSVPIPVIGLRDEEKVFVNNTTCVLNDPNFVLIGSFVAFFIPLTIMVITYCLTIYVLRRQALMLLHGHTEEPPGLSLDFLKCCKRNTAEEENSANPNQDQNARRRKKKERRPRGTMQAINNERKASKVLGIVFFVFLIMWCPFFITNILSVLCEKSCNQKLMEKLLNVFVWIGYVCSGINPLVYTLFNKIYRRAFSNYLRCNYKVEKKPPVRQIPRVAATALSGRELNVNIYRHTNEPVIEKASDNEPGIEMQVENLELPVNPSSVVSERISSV

Progesterone receptor = target: T4, Progesterone receptor (Homo sapiens, UniProt P06401); format: functional
T4 sequence (P06401 whole entry): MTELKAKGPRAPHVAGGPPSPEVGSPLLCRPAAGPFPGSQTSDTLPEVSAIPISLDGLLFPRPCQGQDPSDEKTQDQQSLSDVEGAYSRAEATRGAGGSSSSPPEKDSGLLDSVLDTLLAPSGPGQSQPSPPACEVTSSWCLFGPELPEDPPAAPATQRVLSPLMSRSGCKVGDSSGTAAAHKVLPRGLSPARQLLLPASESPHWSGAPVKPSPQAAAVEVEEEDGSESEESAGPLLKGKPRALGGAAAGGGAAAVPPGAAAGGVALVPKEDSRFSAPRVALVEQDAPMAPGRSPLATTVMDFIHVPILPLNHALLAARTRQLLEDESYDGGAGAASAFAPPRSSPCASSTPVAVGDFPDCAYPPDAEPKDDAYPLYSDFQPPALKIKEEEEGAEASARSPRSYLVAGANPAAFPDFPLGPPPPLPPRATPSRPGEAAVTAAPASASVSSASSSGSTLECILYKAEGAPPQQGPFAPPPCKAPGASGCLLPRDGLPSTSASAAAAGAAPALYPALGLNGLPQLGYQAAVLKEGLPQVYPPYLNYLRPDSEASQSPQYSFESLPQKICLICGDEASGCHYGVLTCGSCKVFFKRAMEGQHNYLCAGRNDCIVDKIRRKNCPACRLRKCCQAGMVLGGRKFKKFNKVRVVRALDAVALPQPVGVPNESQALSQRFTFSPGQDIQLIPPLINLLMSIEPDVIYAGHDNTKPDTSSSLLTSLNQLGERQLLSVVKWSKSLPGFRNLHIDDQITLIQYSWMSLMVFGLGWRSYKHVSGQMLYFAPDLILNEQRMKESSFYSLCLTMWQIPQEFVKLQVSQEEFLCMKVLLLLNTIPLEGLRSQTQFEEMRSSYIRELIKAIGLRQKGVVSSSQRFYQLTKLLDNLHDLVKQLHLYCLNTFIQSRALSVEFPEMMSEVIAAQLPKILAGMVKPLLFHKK

Thromboxane A2 receptor = target: T5, Thromboxane A2 receptor (Homo sapiens, UniProt P21731)
T5 sequence (P21731 whole entry): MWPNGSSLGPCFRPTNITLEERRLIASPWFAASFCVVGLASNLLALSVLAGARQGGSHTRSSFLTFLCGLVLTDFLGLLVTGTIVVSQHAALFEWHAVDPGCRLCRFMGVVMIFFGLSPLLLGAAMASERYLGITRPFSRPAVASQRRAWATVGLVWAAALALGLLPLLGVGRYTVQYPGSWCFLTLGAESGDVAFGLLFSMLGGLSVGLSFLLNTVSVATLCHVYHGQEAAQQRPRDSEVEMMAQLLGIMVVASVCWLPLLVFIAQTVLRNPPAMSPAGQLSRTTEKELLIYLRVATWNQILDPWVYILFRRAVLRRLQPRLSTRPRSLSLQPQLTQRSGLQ

[7] = target: Sodium-dependent noradrenaline transporter (Homo sapiens, UniProt P23975)
Note: assay procedure not described here.

Sequence of Gamma-aminobutyric acid receptor subunit alpha-1 (P62813 whole entry): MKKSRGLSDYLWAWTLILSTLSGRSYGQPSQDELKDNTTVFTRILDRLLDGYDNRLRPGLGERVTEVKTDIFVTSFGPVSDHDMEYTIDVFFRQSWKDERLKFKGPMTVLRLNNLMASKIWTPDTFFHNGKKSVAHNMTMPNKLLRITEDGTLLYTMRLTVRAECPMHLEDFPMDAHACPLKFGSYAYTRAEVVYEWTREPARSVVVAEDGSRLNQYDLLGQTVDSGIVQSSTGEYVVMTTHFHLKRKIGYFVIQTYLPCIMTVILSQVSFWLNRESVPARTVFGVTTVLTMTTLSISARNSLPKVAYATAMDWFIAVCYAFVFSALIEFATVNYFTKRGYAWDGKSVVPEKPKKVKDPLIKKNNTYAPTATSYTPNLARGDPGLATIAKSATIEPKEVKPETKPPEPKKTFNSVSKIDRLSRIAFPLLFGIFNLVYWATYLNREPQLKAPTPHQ
Sequence of D(1A) dopamine receptor (P21728 whole entry): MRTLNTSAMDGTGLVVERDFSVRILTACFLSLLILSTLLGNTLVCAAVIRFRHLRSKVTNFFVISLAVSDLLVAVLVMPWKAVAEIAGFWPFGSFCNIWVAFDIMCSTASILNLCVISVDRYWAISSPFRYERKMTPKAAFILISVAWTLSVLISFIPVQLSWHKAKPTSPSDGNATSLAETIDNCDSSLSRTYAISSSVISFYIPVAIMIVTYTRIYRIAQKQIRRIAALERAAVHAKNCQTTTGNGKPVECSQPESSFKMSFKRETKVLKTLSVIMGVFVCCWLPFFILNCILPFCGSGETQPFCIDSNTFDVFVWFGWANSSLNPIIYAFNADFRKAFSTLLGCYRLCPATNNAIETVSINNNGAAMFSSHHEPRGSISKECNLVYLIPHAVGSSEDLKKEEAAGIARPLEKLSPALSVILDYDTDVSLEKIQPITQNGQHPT
Sequence of Sodium-dependent noradrenaline transporter (P23975 whole entry): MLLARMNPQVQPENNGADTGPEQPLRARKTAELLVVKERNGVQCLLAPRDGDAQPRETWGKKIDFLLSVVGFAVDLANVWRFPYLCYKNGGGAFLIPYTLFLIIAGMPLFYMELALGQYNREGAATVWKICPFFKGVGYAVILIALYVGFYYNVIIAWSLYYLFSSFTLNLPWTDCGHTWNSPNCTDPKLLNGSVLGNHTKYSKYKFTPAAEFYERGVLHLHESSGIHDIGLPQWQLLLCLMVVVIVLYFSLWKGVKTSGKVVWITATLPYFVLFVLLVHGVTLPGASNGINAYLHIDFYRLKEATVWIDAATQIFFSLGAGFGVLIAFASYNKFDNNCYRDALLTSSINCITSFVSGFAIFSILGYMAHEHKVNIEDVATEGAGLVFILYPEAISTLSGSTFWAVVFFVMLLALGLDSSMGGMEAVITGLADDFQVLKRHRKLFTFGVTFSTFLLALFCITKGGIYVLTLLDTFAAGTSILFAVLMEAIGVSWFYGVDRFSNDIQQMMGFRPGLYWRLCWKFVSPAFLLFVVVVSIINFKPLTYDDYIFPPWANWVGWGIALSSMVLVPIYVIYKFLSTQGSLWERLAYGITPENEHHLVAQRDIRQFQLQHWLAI
Sequence of Beta-1 adrenergic receptor (P08588 whole entry): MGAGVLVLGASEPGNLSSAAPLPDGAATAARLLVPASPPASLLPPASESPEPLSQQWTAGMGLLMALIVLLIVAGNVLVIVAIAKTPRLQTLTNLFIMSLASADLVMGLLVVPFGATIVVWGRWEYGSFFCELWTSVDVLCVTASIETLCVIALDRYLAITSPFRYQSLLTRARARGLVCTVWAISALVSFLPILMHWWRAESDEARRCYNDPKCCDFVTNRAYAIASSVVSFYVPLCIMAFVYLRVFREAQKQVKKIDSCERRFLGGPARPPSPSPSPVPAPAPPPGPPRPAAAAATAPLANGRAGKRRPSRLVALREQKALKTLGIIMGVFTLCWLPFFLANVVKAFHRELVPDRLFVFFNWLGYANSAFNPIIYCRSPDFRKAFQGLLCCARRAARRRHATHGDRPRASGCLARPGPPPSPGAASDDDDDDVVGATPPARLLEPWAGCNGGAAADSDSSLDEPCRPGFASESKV

| Structure (SMILES) | AC50 [1] [µM] | AC50 [2] [µM] | AC50 [3] [µM] | AC50 (D(1A) dopamine receptor) [µM] | AC50 [4] [µM] | AC50 [5] [µM] | AC50 [6] [µM] | AC50 (Progesterone receptor) [µM] | AC50 (Thromboxane A2 receptor) [µM] | AC50 [7] [µM] |
| --- | --- | --- | --- | --- | --- | --- | --- | --- | --- | --- |
| O=C(C[S+]([O-])Cc1ccco1)NC/C=C\COc1cc(CN2CCCCC2)ccn1 (stereo not given) [LAFUTIDINE] | > 30 | > 10 | > 10 | > 10 | > 10 | > 10 | > 30 | > 10 | > 10 | > 10 |
| CC(C)(C)NCC(O)COc1cccc2c1CC(O)C(O)C2 (stereo not given) [NADOLOL] | > 30 | > 10 | 0.102 | > 10 | > 10 | > 10 | > 30 | > 10 | > 10 | > 10 |
| CCN(CC)Cc1nccn1-c1ccc([N+](=O)[O-])cc1C(=O)c1ccccc1Cl [NIZOFENONE] | > 30 | > 30 | > 30 | > 30 | > 30 | > 30 | > 30 | > 30 | > 30 | > 30 |
| CC1=C(/C=C/C(C)=C/C=C/C(C)=C/C(=O)Oc2c(C)c(C)c3c(c2C)CCC(C)(CCCC(C)CCCC(C)CCCC(C)C)O3)C(C)(C)CCC1 (stereo not given) [TRETINOIN TOCOFERIL] | > 30 | > 30 | > 30 | > 30 | > 30 | > 30 | > 30 | > 30 | > 30 | > 30 |
| CN(C)CCOCC(=O)NC12CC3CC(CC(C3)C1)C2 [TROMANTADINE] | > 30 | > 30 | > 30 | > 30 | > 30 | > 30 | > 30 | > 30 | > 30 | > 30 |

Other lines, results leading:

| AC50 [1] [µM] | AC50 [2] [µM] | AC50 [3] [µM] | AC50 (D(1A) dopamine receptor) [µM] | AC50 [4] [µM] | AC50 [5] [µM] | AC50 [6] [µM] | AC50 (Progesterone receptor) [µM] | AC50 (Thromboxane A2 receptor) [µM] | AC50 [7] [µM] | Structure (SMILES) |
| --- | --- | --- | --- | --- | --- | --- | --- | --- | --- | --- |
| > 30 | > 30 | > 30 | > 30 | > 30 | > 30 | > 30 | > 30 | > 30 | > 30 | Cc1ccc(S(=O)(=O)NC(=O)N[C@H]2[C@H]3CC[C@@](C)([C@H]2O)C3(C)C)cc1 [GLIBORNURIDE] |
| > 30 | > 10 | > 10 | > 10 | > 30 | > 10 | > 30 | > 10 | > 10 | > 10 | CC(C(=O)O)c1ccc(C(=O)c2ccccc2)s1 (stereo not given) [TIAPROFENIC ACID] |
| > 30 | > 30 | > 30 | > 30 | > 30 | > 30 | > 30 | > 30 | > 30 | > 30 | OCC(CO)N[C@H]1C[C@](O)(CO)[C@@H](O)[C@H](O)[C@H]1O [VOGLIBOSE] |
